Data taken from US20030186943A1, “Substituted gamma-phenyl-delta-lactams and uses related thereto” (Inflazyme Pharmaceuticals Ltd., priority 1998, published 2003).
Where “and” joins values, the source holds several entries; their conditions need not be identical. Equal values may be shown once.

Columns and labels:
[1] = system: mixed-lymphocyte-reaction; experiment: One way and two way mixed-lymphocyte-reaction (MLR); format: cell-based; conditions: read-out: inhibition of proliferation in MLR
[2] = system: TNBS-induced colitis in the rat; experiment: TNBS-induced colitis model of inflammatory bowel disease in the rat; conditions: for MPO Activity (U/mg): colonic tissue;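 as to all read-outs here: rat colitis induced by intracolonic TNBS in 50% ethanol, distal colon assessed at sacrifice on day 7, with saline-instilled vehicle-treated rats as controls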
Procedure: Colitis was induced by intracolonic instillation of the hapten TNBS (60 mg/mL) in 0.5 mL of 50% ethanol. […] An additional group of rats received saline intracolonically in place of TNBS/ethanol and was treated with vehicle at the same times as outlined above. Body weights were recorded at the beginning of the study and at days 2 and 7.
The rats were sacrificed on the 7th day after the induction of colitis and the extent of damage and inflammation was assessed. After the rats were sacrificed, the distal colon was removed and pinned out on a wax platform. The presence or absence of diarrhea was noted, as well as the presence and severity of adhesions between the colon and other organs, and the severity and extent of colonic damage. […] After scoring, a sample of colonic tissue was excised for measurement of myeloperoxidase activity as an index of granulocyte infiltration (see Wallace et al., Gastroenterology 117: in press, 1999; and Morris et al., Gastroenterology 96:795-803, 1989). This tissue sample was 1 cm long (along the axis of the colon) and 5 mm wide and was taken from a region of macroscopically visible damage (or the corresponding region in any rats in which there was no damage). The remainder of the tissue was fixed in neutral buffered formalin and processed by routine methods for subsequent evaluation by light microscopy. In a blinded manner, the sample of colonic tissue from each rat was examined for evidence of mucosal ulceration and inflammation. The percentage of the luminal surface of the section in which ulceration was present was calculated.

[3] = system: collagen-induced arthritis (CIA) in the mouse; experiment: Murine collagen-induced arthritis model; format: in vivo
Procedure: Male DBA/1J mice (7-8 weeks of age) were immunized through a subcutaneous injection of 0.1 mL of a collagen-adjuvant emulsion (0.1 mg chick type II collagen in complete Freund's adjuvant) at the base of the tail. Mice were then randomly assigned to treatment or control groups in the following manner: Compound 43 (n=10); 45% 2-hydroxypropyl betacyclodextrin in 0.9% saline vehicle control (n-10); untreated (n=5) and dexamethasone positive control (n=5). After three weeks the animals were boosted with a second injection of chick type II collagen emulsified at 1.0 mg/mL in incomplete Freund's adjuvant. This second injection is required for reproducible induction of disease. In control animals, clinical signs of arthritis manifested as erythema and edema of the paws and tarsal/metatarsal joints usually appear within 1-2 weeks following the second immunization. Compounds were evaluated for their ability to delay the onset of or reduce the development of arthritis (prophylactic regime). Vehicle, dexamethasone positive control (0.075 mg/kg) and compound 43 (10 mg/kg) were administered twice daily (50 microliter per injection) by i.p. injection beginning on the day of the second collagen injection. The mice continued to receive doses until the last animal in the vehicle control group reached the seventh day of having established disease. In this particular case, this necessitated treatment for 25 days including the day of the booster injection.
The development of clinical arthritis (disease progression) was monitored daily after the second collagen injection. All four limbs were clinically evaluated by a trained observer unfamiliar (blinded) with the treatment group identity, and scored on a scale of 0-4 for disease severity (redness and swelling) according to the following criteria.
Inflammation was defined as any redness or swelling (enlargement) of any part of any paw. Established disease was defined as a qualitative score of paw inflammation of 2 or greater, that persists for at least 24 hours. In addition, paw widths for all four limbs were measured by a blinded observer daily using precision, constant tension calipers.
At the end of the study each animal was euthanized by an overdose of halothane anesthesia. Joints both distal to the knee and including the knee were dissected and analyzed by histology. Limb joints were fixed in 10% formalin buffer and decalcified in 10% formic acid for 48 hours, then processed for paraffin embedding. Serial sections (5-7 micrometer thick) were stained with haematoxylin and eosin (H & E). Histopathological alterations of the tarsal and metatarsal joints were graded “blind” by a certified pathologist and a score assigned based on a ranking system.
Mice were sacrificed on the 25th day after the second collagen injection corresponding to approximately the 10th day of established disease. All four paws from each animal in the study were removed, fixed and processed for blinded histopathological examination by an ACVP board certified veterinary pathologist. Joint pathology for each foot was classified on a scale of 0 to 4, with 0 being normal and 4 the most severely affected. Lesion grades were assigned based on the most severe lesion(s) present in the paw according to the following scale:
The individual paw scores were then summed to obtain a total for each animal with a maximum possible score for an animal being 16. Group values were obtained by averaging the individual animal scores.

naive CD4+ T-cells = experiment: Naive CD4+ T-cell proliferation (AND-TCR transgenic); format: cell-based, mouse
Procedure: AND-TCR transgenic mice (Kaye J. et al., Nature 341:746-749, 1989) were used to provide a source of naive-antigen specific CD4+T cells. The AND-T cell antigen receptor recognizes a peptide derived from pigeon cytochrome C (pcc) in the context of the I-E^k class II MHC molecule.
To examine the role of a test compound in naive CD4 T cell activation and proliferation, 1×10^5 AND-lymph node T cells were cultured with 1×10^6 irradiated B10.BR spleen cells in the presence of varying concentrations of pcc peptide (0-10 μM) in 96 well plates. Proliferation was assessed by ^3H thymidine incorporation. All assay conditions were conducted in triplicate. Cell surface activation phenotype of T cells was assessed by flow cytometric analysis.

[4] = system: K562 chronic myelogenous leukemia cells; experiment: Anti-proliferative activity in K562 cells (3H-thymidine uptake); format: cell-based, human; conditions: for IC50: Homo sapiens, K562, 48 hours, 3H-thymidine, X marks this range, read-out: IC50 range (μM) >50
Procedure: 90 μL K562 cells (human chronic myelogenous leukemia cells) were seeded into sterile 96-well assay plates at a density of 1×10^5 cells/mL in RPMI 1640 supplemented with 10% FBS/2 mM L-glutamine. Samples to be tested were prepared in a sterile 96-well assay plate at 10×the final concentration desired. All sample dilutions contained equal amounts of DMSO to compensate for the % DMSO in the highest sample concentration used. Nine concentrations of test compound were examined for effects on growth up to a maximal concentration of 100 μM. 10 μL of the samples and controls (DMSO/normal growth control) were added to the aliquoted cells. The cells were incubated at 37° C./5% CO2 for 48 hours. Following 48 hour incubation, 20 μL of 3H-thymidine was added to each well for a final concentration of 1 μCi/mL. The cells were then incubated at 37° C./5% CO2 for 4 to 6 hours. Following 4-6 hour thymidine pulse, plates were wrapped in plastic and frozen in a −20° C. frost-free freezer overnight. Cells were harvested and ^3H-thymidine counts determined. In order to distinguish between cytotoxicity and cytostatic activity, growth curves were prepared where the average CPM value of the seeding density of cells was plotted on the same curve as the average CPM value for the maximum proliferation attained after 48 hours (DMSO growth control cells). The cells were diluted 1:2 for a concentration range of 7.8×10^3 cells/mL to 2×10^6 cells/mL. 90 μL of each cell dilution was seeded in sterile 96-well assay plated and allowed to equilibrate for approximately 4 hours at 37° C./5% CO2 prior to ^3H-thymidine pulse. The data in Table 15 was obtained as described above, and more specifically, K562 cells were seeded into 96-well plates at 1×10^5 cells/mL in RPMI 1640 supplemented with 10% FBS/2 mM L-glutamine. Various concentrations of test compound or vehicle (DMSO) was added and the cells were incubated at 37° C./5 CO2 for 48 hours. The cells were then pulsed at 37° C./5% CO2 for 4 to 6 hours with 1 μCi/mL ^3H-thymidine. Radioactivity incorporated into DNA was determined after harvesting onto glass fiber filters and scintillation counting.

[5] = 10 mg/kg intracolonically at 12 h intervals for one week, day 7
[6] = 10 mg/kg i.p. twice daily, prophylactic, Day 25 after collagen boost

**Q.** For `COc1cc(CC2C[C@@H](c3ccc(OC)c(OC4CCCC4)c3)COC2=O)ccc1O` (stereo partly shown) [Compound 43], which inhibition at 20 µM [1] is on record?
**A.** ≥ 50%

**Q.** And the “colonic damage score (% of vehicle)” value ([2]; 10 mg/kg)?
**A.** 49 % of vehicle

**Q.** What about the “histological score (% of control)” value ([2]; 10 mg/kg) of the same compound?
**A.** 52 % of control

**Q.** And the “incidence of adhesions (% of vehicle)” value ([2]; 10 mg/kg)?
**A.** 36 % of vehicle

**Q.** And the “thickness of the bowel wall (% of vehicle)” value ([2]; 10 mg/kg)?
**A.** 30 % of vehicle

**Q.** And the “total reduction in the global colitis score compared to vehicle treated animals” value ([2]; 10 mg/kg)?
**A.** 51%

**Q.** And the Mortality ([2]; 10 mg/kg intracolonically at 12 h intervals for one week)?
**A.** 0/8

**Q.** And the “Adhesion (Incidence)” value [2, 5]?
**A.** (3/8)^ζ

**Q.** And the “Adhesion Score” value [2, 5]?
**A.** 0.5 ± 0.3

**Q.** What about the “Bowel Thickness (mm)” value [2, 5] of the same compound?
**A.** 1.67 ± 0.28 mm

**Q.** What about the “Damage Score” value [2, 5] of the same compound?
**A.** 3.4 ± 0.9

**Q.** What about the “Global Colitis Score” value [2, 5] of the same compound?
**A.** 5.86 ± 1.35

**Q.** And the “MPO Activity (U/mg)” value [2, 5]?
**A.** 65.1 ± 8.6 U/mg

**Q.** And the “MPO Activity (U/mg)” value ([2]; 10 mg/kg intracolonically at 12 h intervals for one week, day 7, 10 mg/kg)?
**A.** not prevented

**Q.** And the Diarrhea ([2]; incidence, 10 mg/kg intracolonically at 12 h intervals for one week, day 7, 10 mg/kg)?
**A.** not statistically significant and 3/8

**Q.** What about the “Histology Score” value ([2]; percentage of luminal surface ulcerated, 10 mg/kg intracolonically for one week, day 7) of the same compound?
**A.** 50.6 ± 10.5

**Q.** And the “reduction of arthritis score compared to the vehicle group” value ([3]; 10 mg/kg i.p. bid, day 25)?
**A.** 35%

**Q.** What about the “reduction of histopathological score compared to the vehicle group” value ([3]; 10 mg/kg i.p. bid, day 25) of the same compound?
**A.** 29%

**Q.** What about the “reduction of paw edema compared to the vehicle group” value ([3]; 10 mg/kg i.p. bid, day 25) of the same compound?
**A.** 42%

**Q.** What about the “Histopathological Score (range)” value ([3]; 10 mg/kg i.p. twice daily, Day 25, maximum possible score 16) of the same compound?
**A.** 7.7 (1-15)

**Q.** And the “Paw Arthritis Score” value [3, 6]?
**A.** 3.3 ± .64

**Q.** And the “Paw Edema (1/100 in.)” value [3, 6]?
**A.** 0.052 ± .0051 1/100 in.

**Q.** And the “rate of disease progression as assessed by paw score” value ([3]; 10 mg/kg i.p., bid, last 10 days of the study)?
**A.** significantly reduced

**Q.** And the inhibition at 5 µM (naive CD4+ T-cells; Mus musculus, T-cell, @5 μM)?
**A.** > 70%

**Q.** With `COc1ccc(C2CNC(=O)C2)cc1OC1CCCC1` (stereo not shown) [Rolipram, reference compound] as the compound, how does the “effect on proliferative ability / cell cycle of K-562 cells” value [4] read?
**A.** failed to have any effect

**Q.** What about the IC50 [4] of the same compound?
**A.** > 50 µM

**Q.** And the “inhibition of T-cell populations” value (naive CD4+ T-cells; all T-cell populations, control phosphodiesterase IV inhibitor)?
**A.** uniformly inhibitory

**Q.** For `COc1ccc([C@@H]2CCC(=O)OC2)cc1OC1CCCC1` [Compound 41], which IC50 [4] is on record?
**A.** > 50 µM
